Assay results published in patent publication US5202339A, “Hydantoin derivatives” (Mochida Pharmaceutical Co., Ltd., priority 1987, dated 1993).

These compounds were tested against T1, bovine lens aldose reductase (Bos taurus, UniProt P16116) (assay: inhibitory activity on bovine lens aldose reductase (Experimental Example 2)). Details: in words.
T1 construct: bovine lens aldose reductase preparation was used; from tissue; host or cells: bovine lens
Format: biochemical
Method: Assays were performed in 0.1M phosphate buffer (pH 6.2) containing 0.4M ammonium sulfate, 10 mM DL-glyceraldehyde, 0.16 mM nicotinamide adenine dinucleotide phosphate, reduced form (NADPH) and aldose reductase (0.010-0.016 units) in a total volume of 1.0 ml. To this mixture was added 10 μl of the solution of each hydantoin derivative to be tested, and the decrease in absorbance at 340 nm was measured with a spectrophotometer.
In the case of `O=C1CN(S(=O)(=O)c2sc3ccccc3c2Cl)C(=O)N1` [Compound 17, 1-(3-chlorobenzo[b]thiophen-2-yl-sulfonyl)hydantoin], the “potency compared with compound 13 and 15” value is reported as “as potent as compound 13 and 15”.
In the case of `O=C1CN(S(=O)(=O)c2ccc3oc(=O)ccc3c2)C(=O)N1` [Compound 23, 1-(coumarin-6-ylsulfonyl)hydantoin], the “potency compared with compound 13 and 15” value is reported as “as potent as compound 13 and 15”.
For `O=C1CN(S(=O)(=O)c2cc3cc(Cl)ccc3s2)C(=O)N1` [Compound 18, 1-(5-chlorobenzo[b]thiophen-2-yl-sulfonyl)hydantoin], the “potency compared with compound 13 and 15” value was “as potent as compound 13 and 15”.

Same assay, conditions: pH 6.2, 10 mM DL-glyceraldehyde, 0.16 mM NADPH
With `N#Cc1c(S(=O)(=O)N2CC(=O)NC2=O)sc2ccccc12` [Compound 33, 1-(3-cyanobenzo[b]thiophen-2-yl-sulfonyl)hydantoin] the IC50 was 190 nM.
With `O=C1CN(S(=O)(=O)c2sc3ccccc3c2C(F)(F)F)C(=O)N1` [Compound 29, 1-(3-trifluoromethylbenzo[b]thiophen-2-ylsulfonyl)hydantoin] the IC50 was 130 nM.
`O=C1CN(S(=O)(=O)c2sc3ccccc3c2Cl)C(=O)N1` [Compound 17, 1-(3-chlorobenzo[b]thiophen-2-yl-sulfonyl)hydantoin] gave an IC50 of 120 nM.
For `O=C1CN(S(=O)(=O)c2ccc3oc(=O)ccc3c2)C(=O)N1` [Compound 23, 1-(coumarin-6-ylsulfonyl)hydantoin], the IC50 was 220 nM.
`CS(=O)(=O)c1c(S(=O)(=O)N2CC(=O)NC2=O)sc2ccccc12` [Compound 32, 1-(3-methylsulfonylbenzo[b]thiophen-2-ylsulfonyl)hydantoin] was tested, and the IC50 was 380 nM.
With `O=C1CN(S(=O)(=O)c2cc3cc(C(=O)O)ccc3s2)C(=O)N1` [Compound 43, 1-(5-carboxybenzo[b]thiophen-2-yl-sulfonyl)hydantoin] the IC50 was 400 nM.
With `O=C1CN(S(=O)(=O)c2cc3cc(Cl)ccc3s2)C(=O)N1` [Compound 18, 1-(5-chlorobenzo[b]thiophen-2-yl-sulfonyl)hydantoin] the IC50 was 240 nM.
Compound `COc1c(S(=O)(=O)N2CC(=O)NC2=O)sc2ccccc12` [Compound 31, 1-(3-methoxybenzo[b]thiophen-2-yl-sulfonyl)hydantoin] has an IC50 of 270 nM.
For `CC(C)c1c(S(=O)(=O)N2CC(=O)NC2=O)sc2ccccc12` [Compound 28, 1-(3-isopropylbenzo[b]thiophen-2-yl-sulfonyl)hydantoin], the IC50 was 140 nM.
Work on `O=C1CN(S(=O)(=O)c2cc(Br)c(Br)s2)C(=O)N1` [Compound 25, 1-(4,5-dibromothiophen-2-ylsulfonyl)hydantoin] yielded an IC50 of 260 nM.
Compound `O=C1CN(S(=O)(=O)c2cc3cccc(Cl)c3s2)C(=O)N1` [Compound 27, 1-(7-chlorobenzo[b]thiophen-2-yl-sulfonyl)hydantoin] has an IC50 of 190 nM.
`O=C1CN(S(=O)(=O)c2sc3ccccc3c2Br)C(=O)N1` [Compound 30, 1-(3-bromobenzo[b]thiophen-2-yl-sulfonyl)hydantoin] gave an IC50 of 120 nM.
For `O=C1CN(S(=O)(=O)c2cc3c(I)cccc3o2)C(=O)N1` [Compound 36, 1-(4-iodobenzo[b]furan-2-ylsulfonyl)hydantoin], the IC50 was 240 nM.
In the case of `O=C1CN(S(=O)(=O)c2cc3cc([N+](=O)[O-])ccc3s2)C(=O)N1` [Compound 42, 1-(5-nitrobenzo[b]thiophen-2-yl-sulfonyl)hydantoin], the IC50 is reported as 270 nM.
Work on `O=C1CN(S(=O)(=O)c2oc3cc(Cl)cc(Cl)c3c2Br)C(=O)N1` [Compound 46, 1-(3-bromo-4,6-dichlorobenzo[b]furan-2-ylsulfonyl)hydantoin] yielded an IC50 of 54 nM.

Each compound was assayed on Streptozotocin-Diabetic Rats (assay: Hypoglycemic Effects in Streptozotocin-Diabetic Rats (Experimental Example 4)). Details: Rattus norvegicus; STZ-diabetic rats, 100 mg/kg oral, 6 hrs after administration; read-out: Lowering rate of serum glucose (%).
Format: in vivo, rat (male Wistar)
Method: Diabetic rats were produced according to the method of Junod et al. (A. Junod et al., J. Clin. Invest., 48, 2129 (1969)). Briefly, male Wistar rats were given 26.5 mg/kg of streptozotocin (STZ) intravenously. Four days later, the rats with serum glucose levels of between 400 and 500 mg/dl were used. After being fasted for 4 hrs, groups of 5 diabetic rats were orally administered with the compounds of the present invention or gliclazide in a dose of 100 mg/kg. Blood sample were collected from the orbital vein before and 6 hrs after the administration. Serum glucose levels were determined by the enzymatic method with an autoanalyzer (Cobas Fara®, Roche).
`O=C1CN(S(=O)(=O)c2cc3ccc(Br)cc3o2)C(=O)N1` [Compound 52, 1-(6-bromobenzo[b]furan-2-ylsulfonyl)hydantoin] gave an inhibition in vivo at 100 mg/kg of 29%.
With `O=C1CN(S(=O)(=O)c2ccc3ccccc3c2F)C(=O)N1` [Compound 50, 1-(1-fluoronaphthalen-2-ylsulfonyl)hydantoin] the inhibition in vivo at 100 mg/kg was 48.8%.
Compound `O=C1CN(S(=O)(=O)c2oc3cc(Br)ccc3c2Br)C(=O)N1` [Compound 54, 1-(3,6-dibromobenzo[b]furan-2-yl-sulfonyl)hydantoin] has an inhibition in vivo at 100 mg/kg of 29%.
Work on `O=C1CN(S(=O)(=O)c2cc3c(Br)cccc3o2)C(=O)N1` [Compound 51, 1-(4-bromobenzo[b]furan-2-ylsulfonyl)hydantoin] yielded an inhibition in vivo at 100 mg/kg of 11%.
Work on `O=C1CN(S(=O)(=O)c2cc3cccc(F)c3o2)C(=O)N1` [Compound 48, 1-(7-fluorobenzo[b]furan-2-ylsulfonyl)hydantoin] yielded an inhibition in vivo at 100 mg/kg of 45.9%.
